Square brackets hold non-standard residues; d marks the D form. Peptide text beside a SMILES is read from it. ξ: configuration not given here. ξOrn = NCCCC(N)C(=O)O
Legend:
[1] = target: T1, Neuropeptide Y receptor type 4 (Homo sapiens, UniProt P50391); assay: Displacement of [3H]UR-KK200 from human Y4 receptor expressed in CHO cells co-expressing Gqi5-mtAEQ measured after 90 mins by scintillation counting analysis; assay type: cell-based
[2] = target: T2, Neuropeptide Y receptor type 1 (Homo sapiens, UniProt P25929); assay: Displacement of [3H]UR-MK299 from Y1 receptor in human SK-N-MC cells; assay type: cell-based
T2 sequence (P25929 whole entry): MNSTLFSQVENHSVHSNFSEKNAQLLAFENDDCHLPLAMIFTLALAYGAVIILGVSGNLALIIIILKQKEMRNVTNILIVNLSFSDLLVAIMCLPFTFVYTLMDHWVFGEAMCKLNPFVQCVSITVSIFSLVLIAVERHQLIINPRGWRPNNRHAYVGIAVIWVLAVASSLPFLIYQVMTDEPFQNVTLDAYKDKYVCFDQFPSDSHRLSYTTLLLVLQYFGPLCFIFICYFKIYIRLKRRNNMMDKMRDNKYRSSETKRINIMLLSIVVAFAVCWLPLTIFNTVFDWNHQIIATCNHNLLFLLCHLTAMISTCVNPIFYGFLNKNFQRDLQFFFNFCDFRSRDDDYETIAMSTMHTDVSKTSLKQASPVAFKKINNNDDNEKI

[3] = target: T3, Neuropeptide Y receptor type 2 (Homo sapiens, UniProt P49146); assay: Displacement of [3H]propionyl-pNPY from human Y2 receptor expressed in CHO cells measured after 2 hrs by microbeta liquid scintillation counting analysis; assay type: cell-based
T3 sequence (P49146 whole entry): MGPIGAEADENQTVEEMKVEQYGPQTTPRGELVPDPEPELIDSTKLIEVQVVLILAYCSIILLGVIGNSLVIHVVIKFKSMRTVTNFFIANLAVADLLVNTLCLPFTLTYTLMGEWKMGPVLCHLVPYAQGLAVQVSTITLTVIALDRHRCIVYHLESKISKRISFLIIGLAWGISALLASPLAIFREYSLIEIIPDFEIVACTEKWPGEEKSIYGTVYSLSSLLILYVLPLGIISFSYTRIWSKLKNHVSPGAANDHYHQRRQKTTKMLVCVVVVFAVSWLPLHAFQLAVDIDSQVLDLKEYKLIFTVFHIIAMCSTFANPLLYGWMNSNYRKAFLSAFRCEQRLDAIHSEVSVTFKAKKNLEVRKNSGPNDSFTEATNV

[4] = target: T4, Neuropeptide Y receptor type 5 (Homo sapiens, UniProt Q15761); assay: Displacement of [3H]propionyl-pNPY from human Y5 receptor expressed in human HEC1B cells; assay type: cell-based
T4 sequence (Q15761 whole entry): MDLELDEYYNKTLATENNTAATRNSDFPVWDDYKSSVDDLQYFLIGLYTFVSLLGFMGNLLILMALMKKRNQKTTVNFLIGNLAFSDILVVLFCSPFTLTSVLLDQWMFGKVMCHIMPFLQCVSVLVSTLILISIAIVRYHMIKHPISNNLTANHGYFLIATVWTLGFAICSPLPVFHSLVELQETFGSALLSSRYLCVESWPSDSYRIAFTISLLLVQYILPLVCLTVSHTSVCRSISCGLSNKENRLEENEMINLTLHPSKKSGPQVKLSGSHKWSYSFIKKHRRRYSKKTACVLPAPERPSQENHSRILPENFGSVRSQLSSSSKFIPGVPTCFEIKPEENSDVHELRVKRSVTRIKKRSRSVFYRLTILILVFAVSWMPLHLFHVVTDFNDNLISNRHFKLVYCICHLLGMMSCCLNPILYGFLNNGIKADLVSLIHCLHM

Homo sapiens [5] = organism: Homo sapiens; assay: Selectivity ratio of Ki for displacement of [3H]UR-MK299 from Y1 receptor in human SK-N-MC cells to Ki for displacement of [3H]UR-KK200 from human Y4 receptor expressed in CHO cells co-expressing Gqi5-mtAEQ; assay type: cell-based
Homo sapiens [6] = organism: Homo sapiens; assay: Selectivity ratio of Ki for displacement of [3H]propionyl-pNPY from human Y2 receptor expressed in CHO cells to Ki for displacement of [3H]UR-KK200 from human Y4 receptor expressed in CHO cells co-expressing Gqi5-mtAEQ; assay type: cell-based
Homo sapiens [7] = organism: Homo sapiens; assay: Selectivity ratio of Ki for displacement of [3H]propionyl-pNPY from human Y5 receptor expressed in human HEC1B cells to Ki for displacement of [3H]UR-KK200 from human Y4 receptor expressed in CHO cells co-expressing Gqi5-mtAEQ; assay type: cell-based
[8] = target: T1, Neuropeptide Y receptor type 4; assay: Agonist activity at human Y4R expressed in HEK293T cells co-expressing ARRB1 assessed as induction of beta-arrestin1 recruitment measured for 40 mins by D-luciferin based luminescence assay; assay type: cell-based, HEK-293T; details: read-out: EC50
[9] = target: T1, Neuropeptide Y receptor type 4; assay: Agonist activity at human Y4R expressed in HEK293T cells co-expressing ARRB2 assessed as induction of beta-arrestin2 recruitment measured for 40 mins by D-luciferin based luminescence assay; assay type: cell-based, HEK-293T
[10] = target: T1, Neuropeptide Y receptor type 4; assay: Agonist activity at human Y4 receptor expressed in CHO cells co-expressing Gqi5-mtAEQ assessed as intracellular calcium mobilization measured for 43 secs in presence of coelenterazine by aequorin-reporter gene based luminescence assay; assay type: functional, cell-based; details: read-out: EC50
[11] = target: T1, Neuropeptide Y receptor type 4; assay: Antagonist activity at human Y4R expressed in HEK293T cells co-expressing ARRB1 assessed as inhibition of hPP-induced beta-arrestin1 recruitment preincubated for 20 mins followed by hPP addition and measured for 40 mins by D-luciferin based luminescence assay; assay type: cell-based; details: HEK-293T
[12] = target: T1, Neuropeptide Y receptor type 4; assay: Antagonist activity at human Y4R expressed in HEK293T cells co-expressing ARRB2 assessed as inhibition of hPP-induced beta-arrestin2 recruitment preincubated for 20 mins followed by hPP addition and measured for 40 mins by D-luciferin based luminescence assay; assay type: cell-based; details: HEK-293T
[13] = target: T1, Neuropeptide Y receptor type 4; assay: (§1) Antagonist activity at human Y4 receptor expressed in CHO cells co-expressing Gqi5-mtAEQ assessed as inhibition of hPP-induced intracellular calcium mobilization preincubated for 15 mins followed by hPP addition and measured for 43 secs in presence of coelenterazine by aequorin-reporter gene based luminescence assay; assay type: functional, cell-based
[14] = target: T1, Neuropeptide Y receptor type 4; assay: (§2) Antagonist activity at human Y4R expressed in HEK293T cells co-expressing ARRB1 assessed as inhibition of hPP-induced beta-arrestin1 recruitment at 10 uM preincubated for 20 mins followed by hPP addition and measured for 40 mins by D-luciferin based luminescence assay; assay type: cell-based; details: HEK-293T
[15] = target: T1, Neuropeptide Y receptor type 4; assay: as §1, with “mobilization at 10 uM” for “mobilization”; assay type: functional, cell-based
[16] = target: T1, Neuropeptide Y receptor type 4; assay: as §2, with “recruitment by measuring rightward shifts of hPP concentration-response curves” for “recruitment”, “assay relative to hPP” for “assay”; assay type: cell-based; details: HEK-293T
[17] = target: T1, Neuropeptide Y receptor type 4; assay: Antagonist activity at human Y4 receptor expressed in CHO cells co-expressing Gqi5-mtAEQ assessed as inhibition of hPP-induced intracellular calcium mobilization by measuring rightward shifts of hPP concentration-response curves at 10 uM preincubated for 15 mins followed by hPP addition and …; assay type: functional, cell-based

T1 sequence (P50391 whole entry): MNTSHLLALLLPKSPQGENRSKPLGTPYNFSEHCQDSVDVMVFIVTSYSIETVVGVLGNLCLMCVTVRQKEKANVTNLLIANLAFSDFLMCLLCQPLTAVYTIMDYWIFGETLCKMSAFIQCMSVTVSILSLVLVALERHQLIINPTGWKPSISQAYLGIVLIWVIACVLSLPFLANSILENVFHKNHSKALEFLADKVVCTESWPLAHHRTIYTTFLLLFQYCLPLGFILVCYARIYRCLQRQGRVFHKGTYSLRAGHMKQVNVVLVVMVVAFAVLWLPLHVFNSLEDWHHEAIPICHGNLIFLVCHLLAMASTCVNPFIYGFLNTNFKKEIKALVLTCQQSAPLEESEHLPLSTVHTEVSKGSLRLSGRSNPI

Compound | Ki ([1]; read-out: Ki) | Ki ([2]; read-out: pKi (converted)) | Ki ([2]; sk-n-mc, read-out: Ki) | Ki ([3]; cho, read-out: Ki) | Ki ([3]; read-out: pKi (converted)) | Ki ([4]; read-out: Ki) | Ki ([4]; read-out: pKi (converted)) | EC50 [8] | EC50 ([9]; read-out: EC50) | EC50 [10] | pKb [11] | pKb [12] | pKb [13] | Ki ([1]; read-out: pKi (converted)) | Ki ([2]; read-out: Ki) | Ratio Ki (Homo sapiens [5]) | Ratio Ki (Homo sapiens [6]) | Ratio Ki (Homo sapiens [7]) | other results
CC(=O)N[C@@H](CCCNC(=N)N)C(=O)NC(CCCN)C(=O)NCC(=O)N[C@@H](Cc1c[nH]c2ccccc12)C(=O)N[C@@H](CCCNC(=N)N)C(=O)N[C@@H](CC(C)C)C(=O)N[C@@H](CCCNC(=N)N)C(=O)N[C@@H](Cc1ccc(O)cc1)C(N)=O (stereo not given in full) (Ac-R[ξOrn]GWRLRY-NH2) | 4.3 nM | > 1000 nM | > 1000 nM | > 1000 nM | > 1000 nM | > 1000 nM | > 1000 nM | 170 nM | 140 nM | 230 nM |  |  |  |  |  | > 230 | > 230 | > 230 | 
CC(=O)N[C@@H](CCCNC(=N)N)C(=O)NC(CCCN)C(=O)N[C@@H](Cc1ccc(O)cc1)C(=O)N[C@@H](CCCNC(=N)N)C(=O)N[C@@H](Cc1c[nH]c2ccccc12)C(=O)N[C@@H](CCCNC(=N)N)C(=O)N[C@@H](Cc1ccc(O)cc1)C(N)=O (stereo not given in full) (Ac-R[ξOrn]YRWRY-NH2) | 160 nM |  |  |  |  |  |  |  |  |  | 6.22 | 5.87 | 6.91 |  |  |  |  |  | 
Ac-RFRLRY-NH2 | 8.9 nM | > 1000 nM | > 1000 nM | > 10000 nM | > 10000 nM | > 1000 nM | > 1000 nM | 550 nM | 320 nM | 550 nM |  |  |  | 8.71 nM |  | > 110 | > 1100 | > 110 | 
Ac-RGRLRY-NH2 | 7.9 nM | > 3160 nM |  | > 1000 nM | > 1000 nM | > 3000 nM | > 3160 nM | 180 nM | 250 nM | 1200 nM |  |  |  | 7.59 nM | > 3000 nM | > 380 | > 130 | > 380 | 
Ac-RGWRLRY-NH2 | 2.8 nM | > 1000 nM | > 1000 nM |  | > 3160 nM | > 10000 nM | > 10000 nM | 160 nM | 51 nM | 110 nM |  |  |  |  |  | > 360 | > 1070 | > 3600 | Ki ([3]; read-out: Ki): > 3000 nM
Ac-RGYRWRY-NH2 | 29 nM | > 3160 nM |  | > 10000 nM | > 10000 nM | > 3000 nM | > 3160 nM |  |  |  | 6.96 | 7.01 | 7.57 |  | > 3000 nM | > 100 | > 340 | > 100 | 
H-RYRWRY-NH2 | 28 nM | > 3160 nM |  |  | > 3160 nM | > 10000 nM | > 10000 nM |  |  |  | 7.14 | 6.87 | 7.32 | 26.9 nM | > 3000 nM | > 110 | > 110 | > 360 | Ki ([3]; read-out: Ki): > 3000 nM; pKb [14]: 6.63; pKb [15]: 7.05; fold change (FC) [16]: 2; fold change (FC) [17]: 2

The remaining compounds from weak to strong by Ki ([1]; read-out: Ki), led by results:

Ki ([1]; read-out: Ki) | Ki ([2]; read-out: pKi (converted)) | Ki ([2]; sk-n-mc, read-out: Ki) | Ki ([3]; cho, read-out: Ki) | Ki ([3]; read-out: pKi (converted)) | Ki ([4]; read-out: Ki) | Ki ([4]; read-out: pKi (converted)) | EC50 [8] | EC50 ([9]; read-out: EC50) | EC50 [10] | pKb [11] | pKb [12] | pKb [13] | Ki ([1]; read-out: pKi (converted)) | Ki ([2]; read-out: Ki) | Compound | Ratio Ki (Homo sapiens [5]) | Ratio Ki (Homo sapiens [6]) | Ratio Ki (Homo sapiens [7]) | other results
250 nM |  |  |  |  |  |  |  |  |  | 6.1 | 5.8 | 6.46 | 240 nM |  | Ac-RGYRWRW-NH2 |  |  |  | 
97 nM |  |  |  |  |  |  |  |  |  | 7.02 | 6.85 | 7.22 | 89.1 nM |  | Ac-RYRWRY-NH2 |  |  |  | 
38 nM | > 1000 nM | > 1000 nM | > 1000 nM | > 1000 nM | > 1000 nM | > 1000 nM | 520 nM | 360 nM | 380 nM |  |  |  | 30.9 nM |  | Ac-RGYRLRW-NH2 | > 26 | 26 | > 26 | 
17 nM | > 3160 nM |  |  | > 3160 nM | > 10000 nM | > 10000 nM | 600 nM | 510 nM | 2500 nM |  |  |  | 14.1 nM | > 3000 nM | Ac-RRLRY-NH2 | > 180 | > 180 | > 590 | Ki ([3]; read-out: Ki): > 3000 nM
3.4 nM | > 10000 nM | > 10000 nM | > 10000 nM | > 10000 nM | > 10000 nM | > 10000 nM | 280 nM | 170 nM | 440 nM |  |  |  |  |  | CC(C)C[C@H](NC(=O)[C@@H](N)CCCNC(=N)N)C(=O)N[C@@H](CCCNC(=N)N)C(=O)N[C@@H](Cc1ccc(O)cc1)C(N)=O | > 2900 | > 2900 | > 2900 | 
1.7 nM | > 1000 nM | > 1000 nM | > 10000 nM | > 10000 nM | > 1000 nM | > 1000 nM | 160 nM | 140 nM | 250 nM |  |  |  | 1.62 nM |  | H-WRLRY-NH2 | > 590 | > 5900 | > 590 | EC50 ([9]; read-out: pEC50 (converted)): 148 nM
